# Test results: patent US20040116505A1, “Treatment of tics, tremors and related disorders” (priority 2001, published 2004)
# Experiments:
# [1] = cited from earlier work
# [2] = tested on: patients suffering from tics; assay: Study in five patients suffering from tics who failed standard drug therapies; assay type: in vivo, human; settings: five patients non-responsive to standard tic therapies; 250 mg BID or 500 mg BID to 1500 mg BID
# Method: Patients received either Low (250 mg BID) or standard doses (500 mg BID to 1500 mg BID) of levetiracetam.
# [3] = in vivo; cited from earlier work
smiles,measurement,setting,value
"CC[C@@H](C(N)=O)N1CCCC1=O [levetiracetam, (S)-2-(2-Oxo-pyrrolidin-1-yl)-butyramide]",levetiracetam excreted unchanged or as an inactive metabolite,[1]; in vivo,90%
same,oral bioavailability,[1]; oral,~100%
same,reduction of tic symptoms,[2],majority of patients experienced a reduction of tic symptoms
same,side effects,[3],minimal side effects
